Measured values reported in ChEMBL document CHEMBL1201862, “PubChem BioAssay data set” (2004).
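These data come from cells grown in 96-well plates and exposed to compound for 48 hours at five concentrations. Here, GI50 denotes the concentration required for 50% inhibition of growth.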 The source made the active and inactive calls. Rule as the data show it: active = GI50 up to about 1.1 µM and inactive = higher.

Columns and labels:
Assay in all cases: DTP human tumour cell line panel, 48 h
[1] = test system: NCI-H522
[2] = test system: OVCAR-4
[3] = test system: M14
[4] = test system: CAKI-1
[5] = test system: SNB-19
[6] = test system: UACC-62
[7] = test system: SF-295
[8] = test system: IGROV-1
[9] = test system: HOP-62
[10] = test system: HOP-92
[11] = test system: CCRF-CEM
[12] = test system: SK-MEL-2
[13] = test system: K562
[14] = test system: OVCAR-3
[15] = test system: Malme-3M

Measured: GI50

CC(=O)C1=C(C)NC2C=CC=CN12 (stereo unspecified)
inactive: [1] > 100 µM | [2] > 100 µM | [3] > 100 µM | [4] > 100 µM | [5] > 100 µM | [6] > 100 µM | [7] > 100 µM | [8] > 100 µM | [9] > 100 µM | [10] > 100 µM | [11] > 100 µM | [12] > 100 µM | [13] > 100 µM | [14] > 100 µM | [15] > 100 µM

CC(=O)OC1COC(N2C(=O)C(=O)c3ccccc32)C(OC(C)=O)C1OC(C)=O (stereo unspecified)
inactive: [1] > 100 µM | [2] > 100 µM | [3] > 100 µM | [4] > 100 µM | [5] > 100 µM | [6] 68.9 µM | [7] > 100 µM | [8] > 100 µM | [9] > 100 µM | [10] > 100 µM | [11] > 100 µM | [12] > 100 µM | [13] > 100 µM | [14] > 100 µM | [15] > 100 µM

COc1ccc(C(c2c(O)c3ccccc3n(-c3ccccc3)c2=O)c2c(O)c3ccccc3n(-c3ccccc3)c2=O)cc1
inactive: [1] > 100 µM | [2] > 100 µM | [4] > 100 µM | [5] > 100 µM | [9] > 100 µM | [10] 49.2 µM | [11] > 100 µM | [12] > 100 µM | [13] > 100 µM | [14] > 100 µM | [15] > 100 µM

Cc1cc(C)[n+]2c(c1)C=CC2.[O-][Cl+3]([O-])([O-])[O-]
inactive: [1] 3.21 µM | [2] 49.9 µM | [3] 8.11 µM | [4] 15.6 µM | [5] 42.7 µM | [7] 25.1 µM | [9] 57.1 µM | [10] 8.57 µM | [12] 11 µM | [14] 11.7 µM | [15] 1.65 µM

O=C(NN1C(=O)C(Cl)C1c1ccc(O)cc1)c1ccccc1O (stereo unspecified)
inactive: [1] 18.1 µM | [2] 23.7 µM | [3] 22.2 µM | [5] 23 µM | [6] 17.2 µM | [7] 16.6 µM | [8] 14 µM | [11] 7.11 µM | [12] 19.9 µM | [13] 22.4 µM | [14] 16.7 µM | [15] 18.6 µM

O=C1C=C(O)c2nc(O)ccc2C1=O
inactive: [1] > 100 µM | [2] 26.2 µM | [3] > 100 µM | [4] > 100 µM | [5] > 100 µM | [6] > 100 µM | [7] > 100 µM | [8] > 100 µM | [9] > 100 µM | [10] > 100 µM | [11] > 100 µM | [13] > 100 µM | [14] > 100 µM | [15] > 100 µM

O=c1c2ccccc2oc2nccnc12
inactive: [2] > 100 µM | [3] > 100 µM | [4] > 100 µM | [5] > 100 µM | [6] > 100 µM | [7] > 100 µM | [8] > 100 µM | [9] > 100 µM | [11] > 100 µM | [12] > 100 µM | [13] > 100 µM | [14] > 100 µM | [15] > 100 µM

O/N=C1/C(=C/c2ccc(Oc3ccccc3)cc2)CCCC1C(NO)c1ccc(Oc2ccccc2)cc1 (stereo unspecified)
inactive: [2] 29.7 µM | [3] 40.6 µM | [4] 33.2 µM | [5] > 100 µM | [6] 43.9 µM | [7] 41.6 µM | [8] 29.1 µM | [9] > 100 µM | [10] 17.9 µM | [11] 12.2 µM | [12] 45.6 µM | [13] 19.8 µM | [14] 32 µM | [15] 44.1 µM

Cc1ccc(NC(=O)C(=O)C(C#N)c2ccccc2C)cc1C (stereo unspecified)
inactive: [1] > 92.5 µM | [2] > 100 µM | [3] > 100 µM | [4] > 100 µM | [5] > 100 µM | [6] > 100 µM | [7] > 100 µM | [8] > 100 µM | [9] > 100 µM | [10] > 100 µM | [11] > 61.7 µM | [12] > 100 µM | [13] > 44.9 µM | [14] > 100 µM | [15] > 100 µM

N#CC(/C(CCCC(=O)Nc1cccc([N+](=O)[O-])c1)=N/NC(=O)c1cc2ccccc2cc1O)c1ccccc1 (stereo unspecified)
inactive: [1] 23.1 µM | [2] 31.1 µM | [3] 16.3 µM | [4] 28 µM | [5] 28.8 µM | [6] 15.8 µM | [7] 39.1 µM | [8] 17.1 µM | [9] 60.7 µM | [10] 29.8 µM | [11] 6.1 µM | [13] 17.7 µM | [14] 25.8 µM | [15] 67.1 µM

CCCC(C)NC1=C(NC(C)=O)C(=O)c2ccccc2C1=O (stereo unspecified)
inactive: [1] 64.7 µM | [2] > 100 µM | [3] > 100 µM | [5] > 100 µM | [6] > 100 µM | [7] > 100 µM | [8] > 100 µM | [9] > 100 µM | [10] 47.9 µM | [11] > 100 µM | [12] > 100 µM | [13] > 100 µM | [14] > 100 µM | [15] 36.1 µM

O=C1c2ccccc2C(=O)N1C/C=N/NS(=O)(=O)c1ccc2ccccc2c1
inactive: [1] > 100 µM | [2] > 100 µM | [3] > 100 µM | [4] > 100 µM | [5] > 100 µM | [6] > 100 µM | [7] > 100 µM | [8] > 100 µM | [9] > 100 µM | [11] > 100 µM | [12] > 100 µM | [13] > 100 µM | [14] > 100 µM | [15] > 100 µM

CCc1cccc(C(C)C)c1C1C(=O)C(=O)N(c2nc3ccccc3s2)C(=O)C1=O
inactive: [2] > 100 µM | [3] > 100 µM | [4] > 100 µM | [5] 71.9 µM | [6] > 100 µM | [7] > 100 µM | [8] > 100 µM | [9] > 100 µM | [10] 38.7 µM | [11] > 100 µM | [12] > 100 µM | [13] > 100 µM | [14] > 100 µM | [15] > 100 µM

CN(C)c1nc(N(C)C)sc(=O)n1
inactive: [1] > 100 µM | [2] > 100 µM | [3] > 100 µM | [4] > 100 µM | [5] > 100 µM | [6] > 100 µM | [7] > 100 µM | [8] > 100 µM | [9] > 100 µM | [10] > 100 µM | [11] > 100 µM | [12] > 100 µM | [13] > 100 µM

CCS/C(=N\c1ccccc1)SC
inactive: [1] > 100 µM | [2] > 100 µM | [3] > 100 µM | [4] > 100 µM | [5] > 100 µM | [6] > 100 µM | [7] > 100 µM | [8] > 100 µM | [9] > 100 µM | [10] > 100 µM | [11] > 100 µM | [12] > 100 µM | [13] > 100 µM | [14] > 100 µM | [15] > 100 µM

CC(=O)NCc1c(C(N)=O)ncn1Cc1ccccc1
inactive: [2] > 100 µM | [3] > 100 µM | [4] > 100 µM | [5] > 100 µM | [6] > 100 µM | [7] > 100 µM | [8] > 100 µM | [9] > 100 µM | [10] > 100 µM | [11] > 100 µM | [13] > 100 µM | [14] > 100 µM

C#C[C@@]1(O)CCCC2=CC(=O)C[C@]21C
inactive: [1] > 100 µM | [3] > 100 µM | [5] > 100 µM | [7] > 100 µM | [8] > 100 µM | [10] > 100 µM | [11] > 100 µM | [12] > 100 µM | [13] > 100 µM | [14] > 100 µM | [15] > 100 µM

CCCN(CCC)C1=Nc2ccccc2-n2cnnc2C1
inactive: [1] 37.8 µM | [2] > 100 µM | [3] > 100 µM | [5] > 100 µM | [6] > 100 µM | [7] > 100 µM | [8] > 100 µM | [9] > 100 µM | [11] > 100 µM | [12] > 100 µM | [13] > 100 µM | [14] > 100 µM | [15] > 100 µM

C[N+](C)(C)CC1CCCCC1O (stereo unspecified)
inactive: [1] 63 µM | [2] > 100 µM | [3] > 100 µM | [4] > 100 µM | [6] > 100 µM | [7] > 100 µM | [8] > 100 µM | [9] > 100 µM | [10] > 100 µM | [11] > 100 µM | [12] > 100 µM | [14] > 100 µM

O=C(OCc1nc2ccc(Br)cc2c(=O)n1-c1ccccc1)c1ccccc1O
inactive: [1] 38.1 µM | [2] 34.1 µM | [3] > 100 µM | [4] 39.8 µM | [6] > 100 µM | [7] > 100 µM | [8] > 100 µM | [9] > 100 µM | [10] > 100 µM | [11] 48.3 µM | [12] 90.4 µM | [13] 54.7 µM | [14] 2.32 µM | [15] > 100 µM
